Data: paper PMC6006426, “Effect of tyrosine kinase inhibitors on renal handling of creatinine by MATE1” (Scientific Reports, 2018)
Like-named read-outs stand apart in the source and are kept apart here.

Assays:
[1] = set-up: method as in earlier work; conditions: unbound fraction in plasma; 34-43 (per drug); cited from earlier work
[2] = Clinical plasma pharmacokinetic parameters of TKIs; type: in vivo, human; conditions: for Cmax,u: calculated unbound plasma concentration (Cmax x fu) from cited clinical parameters; for Ctrough,u: calculated unbound trough plasma concentration from cited clinical parameters
Source text: Table 2 Pharmacokinetic parameters and obtained IC50, Ki, and Kp,uu values of TKIs. | column: Cmax,u (μM) Ctrough,u (μM)

OCT2 and MATE1 = conditions: for Prediction of SCr increase, Cmax,u: based on Cmax,u (Kp,uu assumed 1), mean ± S.D. (n = 11 subjects' parameters from ref 10); for Prediction of SCr increase, Cmax,u · Kp,uu: based on Cmax,u with Kp,uu incorporated; for Prediction of SCr increase, Cmax,u · Kp,uu / Prediction of SCr increase, Ctrough,u / Prediction of SCr increase, Ctrough,u · Kp,uu: mean ± S.D. (n = 11); for Prediction of SCr increase, Ctrough,u: based on Ctrough,u (Kp,uu assumed 1); for Prediction of SCr increase, Ctrough,u · Kp,uu: based on Ctrough,u with Kp,uu incorporated
Source text: In this model, the intrinsic clearances of OCT2 and MATE1 were assumed to be equal. When MATE1 inhibition was predicted from the Cmax,u of drugs, Kp,uu was assumed to be 1.

[3] = patients treated with crizotinib, n = 38, 95% CI 21.3–[…]; cited from earlier work
[4] = set-up: method as in earlier work; conditions: 34-43 (per drug), cited from earlier work; for Ctrough: trough plasma concentration, clinical dosing as in table footnote; for t1/2: clinical half-life; for Cmax: maximum plasma concentration, clinical dosing: crizotinib 250 mg twice a day, gefitinib 250 mg, imatinib 400 mg, pazopanib 800 mg, sorafenib 400 mg, sunitinib 50 mg once a day
creatinine transporters = conditions: cited from earlier work
[5] = Tissue accumulation (Kp,uu) of TKIs in rat kidney slices; type: in vitro ADME; conditions: male, Wistar, rat kidney slices (0.3 mm thick), pH 7.4, TKI 1 μM, 120 min, C/M ratio 37 °C / 4 °C, mean ± S.E.M. (n = 3 or 4)
Method: Male Wistar rats (180 ± 10 g body weight) were purchased from Japan SLC (Hamamatsu, Japan). Rats were housed three per cage with free access to commercial chow and tap water, and were maintained on a 12 h dark/light cycle in an air-controlled room (temperature, 24.0 ± 1 °C; humidity, 55 ± 5%).
Uptake study by rat kidney slices was carried out as described previously, with slight modifications. Whole kidneys of male rats were sliced (0.3 mm thick) with a microslicer (Zero 1; Dosaka EM, Kyoto, Japan). […] Three or four slices per rat, each weighing 5 to 20 mg, were randomly selected and pre-incubated in a 12-well plate with 2.0 ml/well of oxygenated transport buffer at 37 °C for 5 min. After pre-incubation, the kidney slices were placed in transport buffer containing TKIs to initiate the uptake reaction. After uptake at 37 °C for an appropriate time, each slice was rapidly removed from the transport buffer, washed twice in ice-cold transport buffer, blotted on filter paper and weighed. Non-specific adsorption of each substrate was estimated as the absorption on a slice incubated at 4 °C for 1 min. The tissue accumulation of TKIs was measured by liquid chromatography-tandem mass spectrometry (LC-MS/MS) as described below.
The unbound renal proximal tubule epithelial cell-to-medium concentration ratio (Kp,uu) based on the steady-state uptake at 37 °C and 4 °C was defined according to Eq. (4);4 Kp,uu=C/Mratioss,37 °C/C/Mratioss,4 °C
Kp,uu was calculated by dividing C/Mratioss,37 °C by the mean value of C/Mratioss,4 °C .

MATE2K = target: T1, MATE2K (Homo sapiens, UniProt Q86VL8); assay: Uptake of MPP+ by HEK293/MATE2K and mock cells; type: cell-based
T1 construct: expressed in transfected cells; host or cells: HEK293
T1 sequence (Q86VL8 1-566 isoform Q86VL8-3): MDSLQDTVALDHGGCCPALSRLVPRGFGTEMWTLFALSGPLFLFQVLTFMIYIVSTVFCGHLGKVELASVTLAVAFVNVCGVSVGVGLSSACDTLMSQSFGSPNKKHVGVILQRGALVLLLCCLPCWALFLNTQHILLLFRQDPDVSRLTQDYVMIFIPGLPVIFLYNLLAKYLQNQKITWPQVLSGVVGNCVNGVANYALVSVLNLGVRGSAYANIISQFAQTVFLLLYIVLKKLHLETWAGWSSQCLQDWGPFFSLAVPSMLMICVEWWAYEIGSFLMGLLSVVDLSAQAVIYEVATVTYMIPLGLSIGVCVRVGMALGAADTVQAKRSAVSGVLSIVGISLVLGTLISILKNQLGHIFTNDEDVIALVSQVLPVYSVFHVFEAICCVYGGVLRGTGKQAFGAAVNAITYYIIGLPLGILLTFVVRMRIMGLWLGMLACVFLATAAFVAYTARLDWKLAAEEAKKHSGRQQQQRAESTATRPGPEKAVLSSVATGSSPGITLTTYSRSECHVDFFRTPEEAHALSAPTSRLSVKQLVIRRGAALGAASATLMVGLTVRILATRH
Method: The uptake experiment was conducted as described previously. HEK293 cells were plated at a density of 1.7 × 10^5 cells/cm^2 on 24-well plates and cultured for two days before uptake assay. The cells were pre-incubated with 0.5 ml of transport medium (TM) (125 mM NaCl, 4.8 mM KCl, 1.2 mM KH2PO4, 1.2 mM CaCl2, 1.2 mM MgSO4, 5.6 mM D-glucose, and 25 mM HEPES, pH 7.4) for an appropriate time at 37 °C. Cells for MATE1 assays were pre-incubated in TM containing 30 mM NH4Cl for 20 min to establish an outwardly directed H^+ gradient; this was done concomitantly with the pre-incubation with TKIs. […] Uptake was terminated by washing the cells three times with 0.5 ml of ice-cold TM, and the cells were solubilized in 0.25 ml of 0.01% (v/v) Triton-X. Radioactivity was measured with a liquid scintillation counter (Hitachi Aloka Medical, Ltd., Tokyo, Japan). […] Uptake was terminated by washing the cells three times with ice-cold TM, and intracellular [^14C]creatinine concentration was determined by the method described above.
Experiments were conducted at least twice, and the results are shown as representative values in individual experiments. Uptake by transporter-expressing cells was expressed as the cell-to-medium (C/M) ratio (μL/mg protein), obtained by dividing the uptake amount by the concentration of substrate in the TM. […]

human MATE1 = target: T2, human MATE1 (Homo sapiens, UniProt Q96FL8); assay: Inhibition of [14C]creatinine uptake by HEK293/MATE1 cells; type: cell-based
T2 construct: expressed in transfected cells; host or cells: HEK293
T2 sequence (Q96FL8 1-570): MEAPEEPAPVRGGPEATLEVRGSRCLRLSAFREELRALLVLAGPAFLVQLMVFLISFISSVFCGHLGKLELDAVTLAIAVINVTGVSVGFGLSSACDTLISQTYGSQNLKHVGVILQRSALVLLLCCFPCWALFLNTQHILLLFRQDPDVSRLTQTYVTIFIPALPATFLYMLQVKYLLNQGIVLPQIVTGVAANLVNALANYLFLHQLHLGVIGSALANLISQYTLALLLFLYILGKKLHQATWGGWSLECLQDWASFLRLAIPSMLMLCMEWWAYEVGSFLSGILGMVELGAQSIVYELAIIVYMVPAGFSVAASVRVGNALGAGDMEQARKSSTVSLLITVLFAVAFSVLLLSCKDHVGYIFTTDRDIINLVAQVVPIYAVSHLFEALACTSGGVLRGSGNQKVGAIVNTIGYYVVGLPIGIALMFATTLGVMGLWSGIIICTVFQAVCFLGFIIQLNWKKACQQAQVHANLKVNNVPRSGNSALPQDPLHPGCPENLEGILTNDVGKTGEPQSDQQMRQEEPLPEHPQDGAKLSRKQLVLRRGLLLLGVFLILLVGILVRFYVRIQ
Method: (§1) Cells were cultured in Dulbecco’s modified Eagle’s medium (DMEM) supplemented with 10% fetal bovine serum, 100 units/ml penicillin, 100 μg/ml streptomycin, 1 mM pyruvic acid, and 100 μg/ml zeocin for HEK293/OCT2 cells or 400 μg/mL G418 for HEK293/MATE1 and MDCKII/MATE1 cells at 37 °C in a humidified atmosphere of 5% CO2 in air.
The cells were incubated at 37 °C.
Uptake by transporter-expressing cells was expressed as the cell-to-medium (C/M) ratio (μL/mg protein), obtained by dividing the uptake amount by the concentration of substrate in the TM. MATE1- or OCT2-mediated uptake was obtained after subtraction of the uptake by mock cells.
Kinetic parameters for uptake were obtained using the Michaelis-Menten Eq. (2);2 v=Vmax×[C]/Km+[C] where v, Vmax, Km, and [C] are initial uptake rate, maximal uptake rate, Michaelis constant, and substrate concentration, respectively.

human OCT2 = target: T3, human OCT2 (Homo sapiens, UniProt O15244); assay: Inhibition of [14C]creatinine uptake by HEK293/OCT2 cells; type: cell-based; conditions: for IC50: 37 °C, pre/co-incubation, unit inferred, read-out: IC50 or Ki, OCT2
T3 construct: expressed in transfected cells; host or cells: HEK293
T3 sequence (O15244 1-555): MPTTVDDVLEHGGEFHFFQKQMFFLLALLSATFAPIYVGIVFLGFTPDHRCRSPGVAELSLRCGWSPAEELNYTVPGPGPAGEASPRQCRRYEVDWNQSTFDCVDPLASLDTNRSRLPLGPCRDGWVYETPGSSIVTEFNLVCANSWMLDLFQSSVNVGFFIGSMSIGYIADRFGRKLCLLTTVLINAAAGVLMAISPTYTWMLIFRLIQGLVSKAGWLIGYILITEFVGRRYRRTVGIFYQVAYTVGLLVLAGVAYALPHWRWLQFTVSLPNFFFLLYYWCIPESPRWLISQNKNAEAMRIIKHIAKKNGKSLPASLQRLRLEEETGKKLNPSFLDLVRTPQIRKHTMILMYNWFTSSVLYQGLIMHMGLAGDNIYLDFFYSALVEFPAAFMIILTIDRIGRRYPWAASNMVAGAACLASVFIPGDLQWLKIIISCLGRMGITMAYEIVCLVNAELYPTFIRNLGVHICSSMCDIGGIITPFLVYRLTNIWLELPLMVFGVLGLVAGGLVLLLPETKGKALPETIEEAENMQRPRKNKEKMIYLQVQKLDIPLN
Method: as §1
The cells were incubated at 37 °C.
Experiments were conducted at least twice, and the results are shown as representative values in individual experiments. Uptake by transporter-expressing cells was expressed as the cell-to-medium (C/M) ratio (μL/mg protein), obtained by dividing the uptake amount by the concentration of substrate in the TM. MATE1- or OCT2-mediated uptake was obtained after subtraction of the uptake by mock cells.

Row | SMILES | fu [1] | Cmax,u [2] [nM] | Prediction of SCr increase, Cmax,u (OCT2 and MATE1) [%] | Prediction of SCr increase, Cmax,u · Kp,uu (OCT2 and MATE1) [%] | Prediction of SCr increase, Ctrough,u (OCT2 and MATE1) [%] | Prediction of SCr increase, Ctrough,u · Kp,uu (OCT2 and MATE1) [%] | Ctrough [4] [nM] | Kp uu at 2 h, 1 μM [5] | t1/2 [4] [h] | Cmax [4] [nM] | also measured
1 | C[C@@H](Oc1cc(-c2cnn(C3CCNCC3)c2)cnc1N)c1c(Cl)ccc(F)c1Cl [Crizotinib, crizotinib] | 0.093 | 84.8 | 14.5 ± 4.6 | 25.3 ± 8.8 | 11.7 ± 3.6 | 21.1 ± 7.1 | 708 |  |  |  | Ctrough,u [2]: 65.8 nM; Prediction of SCr increase, Cmax,u (OCT2 and MATE1; listed as crizotinib): 14.5%; Prediction of SCr increase, Cmax,u · Kp,uu (OCT2 and MATE1; listed as crizotinib): 25.3%; Predicted increase of SCr in the clinical context (OCT2 and MATE1; summary statement of the prediction): more than 10%; Clinically reported eGFR reduction [3]: 23.9%
2 | COc1c(N2CC[C@@H](C3(N)CC3)C2)ccc2c(=O)c(C(=O)O)cn([C@@H]3C[C@@H]3F)c12 [DX-619] |  |  |  |  |  |  |  |  |  |  | Reduction of creatinine clearance (creatinine transporters): up to 51.4%
3 | COc1cc2ncnc(Nc3ccc(F)c(Cl)c3)c2cc1OCCCN1CCOCC1 [Gefitinib, gefitinib] | 0.09 | 93.6 | 2.47 ± 1.05 |  |  |  |  | 2.22 ± 0.05 | 23.8 | 1040 | 
4 | Cc1ccc(NC(=O)c2ccc(CN3CCN(C)CC3)cc2)cc1Nc1nccc(-c2cccnc2)n1 [Imatinib, imatinib] |  |  |  |  |  |  |  | 2.39 ± 0.29 |  |  | 
5 | CC(=O)[O-].C[n+]1ccc(-c2ccccc2)cc1 [MPP^+, N-methyl-4-phenylpyridinium acetate] |  |  |  |  |  |  |  |  |  |  | Uptake of MPP+ by HEK293/MATE2K cells (MATE2K; HEK293/MATE2K cells): 19.1 μL/mg/1 min; Uptake of MPP+ by mock cells (MATE2K; mock cells): 5.76 μL/mg/1 min
6 | Cc1ccc(Nc2nccc(N(C)c3ccc4c(C)n(C)nc4c3)n2)cc1S(N)(=O)=O [Pazopanib, pazopanib] | 0.000106 | 10.1 | 1.16 ± 0.87 | 1.86 ± 0.95 | 0.837 ± 0.842 | 1.22 ± 0.87 | 50600 | 2.05 ± 0.14 | 30.9 | 95100 | IC50 (human MATE1; [14C]creatinine 2.6 μM, 2 min, 37 °C, pre/co-incubation, unit inferred, read-out: IC50 or Ki, MATE1): 0.47 ± 0.032 µM; Ctrough/IC50 or Ki, MATE1 (human MATE1; ratio of trough (unbound) concentration to IC50 or Ki for MATE1): 0.0114; Inhibition of [14C]creatinine uptake by HEK293/OCT2 cells (in words) (human OCT2; pazopanib 1, 3, 10, 30 μM, [14C]creatinine 2.6 μM, 1 min): not by pazopanib; Ctrough/IC50 or Ki, OCT2 (human OCT2; ratio of trough (unbound) concentration to IC50 or Ki for OCT2): 0.0000386
7 | CNC(=O)c1cc(Oc2ccc(NC(=O)Nc3ccc(Cl)c(C(F)(F)F)c3)cc2)ccn1 [Sorafenib, sorafenib] | 0.0029 |  | 1.47 ± 0.90 | 3.10 ± 1.17 |  |  |  | 2.76 ± 0.27 | 28.1 | 14600 | IC50 (human OCT2; [14C]creatinine 2.6 μM, 1 min): 40.8 ± 9.3 µM
8 | CCN(CC)CCNC(=O)c1c(C)[nH]c(/C=C2\C(=O)Nc3ccc(F)cc32)c1C [Sunitinib, sunitinib] |  | 6.8 | 1.65 ± 0.92 | 2.73 ± 1.10 | 1.19 ± 0.87 | 1.86 ± 0.95 | 82.9 | 3.93 ± 0.15 | 40 to 60 | 136 | IC50 (human OCT2; [14C]creatinine 2.6 μM, 1 min): 0.266 ± 0.03 µM; Ctrough,u [2]: 4.14 nM
